Measurements taken from US7524867B2, “Tetrasubstituted imidazole derivatives as cannabinoid CB1 receptor modulators with a high CB1/CB2 receptor subtype selectivity” (Solvay Pharmaceuticals, B.V., priority 2004, dated 2009).
Like-named read-outs stand apart in the source and are kept apart here.

Tests used:
[1] = biological target: T1, human cannabinoid CB1 receptor (Homo sapiens, UniProt P21554); test: In vitro affinity for cannabinoid-CB1 receptors ([3H]CP-55,940 radioligand binding, CHO cell membranes); details: for CB1/CB2 ratio: CB1/CB2 receptor subtype selectivity (affinity ratio; numerically CB2 nM value divided by CB1 nM value)
T1 construct: expressed in transfected cells; host or cells: Chinese hamster ovary (CHO) cells, stably transfected; membrane preparation
T1 sequence (P21554 whole entry): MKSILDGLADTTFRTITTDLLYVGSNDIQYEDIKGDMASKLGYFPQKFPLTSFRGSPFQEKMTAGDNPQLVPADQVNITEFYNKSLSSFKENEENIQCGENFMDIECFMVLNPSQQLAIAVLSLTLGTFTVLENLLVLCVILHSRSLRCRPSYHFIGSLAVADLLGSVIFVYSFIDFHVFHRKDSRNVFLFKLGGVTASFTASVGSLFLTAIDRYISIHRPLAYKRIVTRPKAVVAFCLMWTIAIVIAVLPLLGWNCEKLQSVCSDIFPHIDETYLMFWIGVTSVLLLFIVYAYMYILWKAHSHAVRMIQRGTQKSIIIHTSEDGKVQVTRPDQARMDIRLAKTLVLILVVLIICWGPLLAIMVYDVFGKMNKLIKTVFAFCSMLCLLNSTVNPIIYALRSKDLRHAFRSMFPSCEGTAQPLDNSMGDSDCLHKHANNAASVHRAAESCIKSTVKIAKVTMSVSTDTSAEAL
Experimental: In Vitro Affinity for Cannabinoid-CB1 Receptors
After incubation of a freshly prepared cell membrane preparation with the [^3H]-ligand, with or without addition of compounds of the invention, separation of bound and free ligand is performed by filtration over glassfiber filters. Radioactivity on the filter is measured by liquid scintillation counting.
The affinity of the compounds of the invention for CB1 receptors was determined as described above. […] Pharmacokinetic, pharmacodynamic, and other considerations may alter the dose actually administered to a higher or lower value. The dosage expediently administered is 0.001-1000 mg/kg, preferably 0.1-100 mg/kg of patient's bodyweight.

[2] = biological target: T2, human cannabinoid CB2 receptor (Homo sapiens, UniProt P34972); test: In vitro affinity for cannabinoid-CB2 receptors ([3H]CP-55,940 radioligand binding, CHO cell membranes); details: membranes of CHO cells stably transfected with human CB2, mean of at least three independent experiments
T2 construct: expressed in transfected cells; host or cells: Chinese hamster ovary (CHO) cells, stably transfected; membrane preparation
T2 sequence (P34972 whole entry): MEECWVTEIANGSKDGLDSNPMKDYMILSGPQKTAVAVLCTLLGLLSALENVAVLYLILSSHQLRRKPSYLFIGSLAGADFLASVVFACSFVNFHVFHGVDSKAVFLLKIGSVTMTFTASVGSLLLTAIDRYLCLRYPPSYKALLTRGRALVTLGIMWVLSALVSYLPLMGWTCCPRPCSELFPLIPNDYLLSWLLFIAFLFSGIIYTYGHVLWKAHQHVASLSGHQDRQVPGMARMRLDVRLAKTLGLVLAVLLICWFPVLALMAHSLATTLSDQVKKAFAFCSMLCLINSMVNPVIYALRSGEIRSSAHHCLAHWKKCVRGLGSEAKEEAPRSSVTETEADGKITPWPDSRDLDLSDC
Experimental: In Vitro Affinity for Cannabinoid-CB2 Receptors
The affinity of the compounds of the invention for cannabinoid CB2 receptors can be determined using membrane preparations of Chinese hamster ovary (CHO) cells in which the human cannabinoid CB2 receptor is stably transfected in conjunction with [^3H]CP-55,940 as radioligand. After incubation of a freshly prepared cell membrane preparation with the [^3H]-ligand, with or without addition of compounds of the invention, separation of bound and free ligand is performed by filtration over glassfiber filters. Radioactivity on the filter is measured by liquid scintillation counting.

Row | melting point [°C] | Ki ([1]; receptor affinity, membranes of CHO cells stably transfected with human CB1, [3H]CP-55,940, mean of at least three independent experiments, read-out: CB1) [nM] | Structure (SMILES) | Ki [1] [nM] | CB1/CB2 ratio [1] | Ki [2] [nM]
1 | 192 to 193 | – | CSc1c(C(=O)NN2CCCCC2)nc(-c2ccccc2Cl)n1-c1ccc(Cl)cc1 | – | – | –
2 | – | – | CS(=O)(=O)c1c(C(=O)NN2CCCCC2)nc(-c2ccc(Cl)cc2Cl)n1-c1ccc(Cl)cc1 [compound 1, 1-(4-Chlorophenyl)-2-(2,4-dichlorophenyl)-5-methylsulfonyl-N-(piperidin-1-yl)-1H-imidazole-4-carboxamide] | 12 | 638 | 7650
3 | – | – | CSc1c(C(=O)NN2CCCCC2)nc(-c2ccc(Cl)cc2Cl)n1-c1ccc(Cl)cc1 [compound 6, 1-(4-Chlorophenyl)-2-(2,4-dichlorophenyl)-5-methylsulfanyl-N-(piperdin-1-yl)-1H-imidazole-4-carboxamide] | – | 171 | 2060
4 | – | – | CSc1c(C(=O)NN2CCCC2)nc(-c2ccc(Cl)cc2Cl)n1-c1ccc(Cl)cc1 [compound 9, 1-(4-chlorophenyl)-2-(2,4-dichlorophenyl)-5-methylsulfanyl-N-(pyrrolidin-1-yl)-1H-imidazole-4-carboxamide] | 5 | >200 | > 1000
5 | – | 7 | CSc1c(C(=O)NN2CCCCCC2)nc(-c2ccc(Cl)cc2Cl)n1-c1ccc(Cl)cc1 [compound 10, 1-(4-chlorophenyl)-2-(2,4-dichlorophenyl)-5-methylsulfanyl-N-(azepan-1-yl)-1H-imidazole-4-carboxamide] | – | >142 | > 1000
